Results from ChEMBL document CHEMBL3507680, “University of Dundee, Gates Library screen for HepG2 cell viability”.

Assay: Human HepG2 cell viability assay in 384 well format
Assay type: toxicity, cell-based
Design: dose 125 nL, time 70.5 hour; cytotoxicity at 70.5 h: concentration not given beside the values
Conditions: HepG2 cells, read-out: Inhibition

SMILES	cytotoxicity at 70.5 h
CN1CCN(Cc2ccccc2CNC(=O)c2cc(Br)ccc2F)CC1	10.8%
Cc1ccccc1N1CCN(C(=O)c2cccnc2-n2cncn2)CC1	-6.93%
CC(C(=O)NCc1ccnc(OC2CCCC2)c1)n1cncn1 (stereo not given)	-3.9%
N#Cc1cccnc1NCCNC(=O)N1CCSCC1	9.49%
N#Cc1cccnc1NCCNC(=O)N1CCCC(N2CCCC2)C1 (stereo not given)	10.7%
COc1ccccc1C1(CNc2nnc(C)c(C)c2C#N)CCOCC1	-5.67%
CCN(CC)C(=O)CSc1ccc(C(F)(F)F)cn1	-6.72%
O=C(Cc1cccc(F)c1)NCCNCC1CNc2ccnn2C1 (stereo not given)	15.5%
CC(C)C(=O)NCc1ccnc(Oc2ccc(F)cc2)c1	-5.04%
CCN1CCN(C(=O)c2ccnc(N(C)C)c2)CC1	3.26%
CC(NC(N)=O)C(=O)NCc1ccnc(Oc2ccc(F)cc2)c1 (stereo not given)	-0.577%
CC(C)(C)c1noc(OCC(=O)NCC(F)(F)F)n1	-0.303%
CC(C)(C)c1noc(OCC(=O)NC2CCCC2)n1	0.264%
CN(C)c1cccc(C(=O)NCC2(O)CCOCC2)c1	-0.873%
Cc1nnc(NCC2(c3ccccc3)CCC2)c(C#N)c1C	2.86%
CCc1nnc(CN2CCN(C(C)=O)CC2)o1	-1.65%
COCC(=O)N1CCN(Cc2nnc(C(C)(C)C)o2)CC1	-1.83%
CCC(C)C(=O)NCc1cccc(OCCN(C)C2CCOCC2)c1 (stereo not given)	16.4%
O=C(c1cccnc1-n1cncn1)N1CCC(Nc2ccccc2)CC1	-0.978%
Cc1cnn(CC2CCCCN2CC(=O)N(C)Cc2ccc(C)o2)c1 (stereo not given)	-2.13%

SMILES	cytotoxicity at 70.5 h
Cc1ccc(CN(C)C(=O)CN2CCCC2c2cnn(C)c2)o1 (stereo not given)	16.6%
Cc1cnn(CC2CCCN2CC(=O)N(C)Cc2ccsc2)c1 (stereo not given)	-2.74%
C=C(C)CNC1CCCN(Cc2noc(C3CC3)n2)C1 (stereo not given)	-5.26%
C1CCC(CNC2CCCN(Cc3noc(C4CC4)n3)C2)C1 (stereo not given)	-10.4%
CCC(NCc1ncc[nH]1)c1nc(C(F)(F)F)cs1 (stereo not given)	-4.3%
O=C(NC1(c2nccs2)CCCC1)c1cc(C2CC2)on1	-3.31%
N#Cc1cc(Br)ccc1NC1CCN(CC(N)=O)CC1	-2.02%
N#Cc1c(N2CCN(CC3CCOC3)CC2)nc2ccccn12 (stereo not given)	-1.45%
CC(C)N1CCC(Nc2ccn(Cc3ccccn3)n2)C1=O (stereo not given)	1.71%
COc1ccccc1C(=O)N1CCC(O)(c2cccc(C)c2C)CC1	11.7%
Cc1cnn(CC2CCCN2C(=O)c2sccc2C#N)c1 (stereo not given)	-2.76%
O=c1oc(-c2ccc(F)cc2)nn1CCc1ccncc1	-9.83%
O=c1oc(-c2ccc(F)cc2)nn1CCS(=O)(=O)c1ccccc1	-9.58%
CC(=O)Nc1nc(C(=O)NCCOc2ccccc2)cs1	-6.89%
CC(=O)Nc1nc(C(=O)NCCOc2ccc(C)cc2)cs1	13.3%
CCOCc1ccccc1CNc1ccc2nncn2n1	-5.87%
Cn1ccnc1COc1ccc(CSc2nnnn2C2CC2)cc1	6.53%
NC(=O)Cn1ccc(NC(=O)C2(c3ccc(F)cc3)CC2)n1	-11.2%
Cc1ccc(CN(C)C(=O)CN2CCCC2c2cnn(C)c2)cc1 (stereo not given)	-6.75%
O=C(CNc1ccc(F)cc1OCC(F)(F)F)NCc1ccco1	-10.6%

SMILES	cytotoxicity at 70.5 h
CCOc1cc(C(=O)N(C)C)ccc1NC(=O)c1ccsc1	-9.1%
Cc1cc(CNC(=O)Cc2cccs2)ccc1S(C)(=O)=O	4.24%
Cc1cccc(OC2CCN(c3nccnc3C#N)CC2)n1	4.46%
Cc1cccc(OC2CCN(c3ccc(C#N)cn3)CC2)n1	-1.77%
O=C(N1CCOCC1)N1CCN(c2ccnc3ccsc23)CC1	39.2%
CC1CCN(S(=O)(=O)N2CCn3cccc3C2C)CC1 (stereo not given)	-4.61%
COCCn1cc(NCc2c[nH]nc2C(C)(C)C)cn1	-4.3%
COCCn1cc(NCc2c[nH]nc2-c2ccc(OC)cc2)cn1	-5.02%
CN(c1ncnc2c1cnn2C)C1CCCN(c2cccnn2)C1 (stereo not given)	0.765%
CN(c1ncnc2ccccc12)C1CCCN(c2cccnn2)C1 (stereo not given)	-12.6%
C=C(C)CN(CC)Cc1nc(C)no1	-6.47%
CCC(CC)C(CNC(=O)Nc1ccc(OC)cc1)N1CCOCC1 (stereo not given)	-12.2%
CCn1c(C)cc(C(=O)NCc2cccc(NS(C)(=O)=O)c2)c1C	16.2%
Cc1noc(C)c1CN(Cc1ccccc1)C(C)CN1CCOCC1 (stereo not given)	-9.44%
O=S(=O)(C/C=C/c1ccccc1)Cc1nc(C2CC2)no1	-11.4%
CCC(CC)C(CNC(=O)Nc1cnn(CCOC)c1)N(C)C (stereo not given)	-8.7%
CC(CN1CCOCC1)N(Cc1ccccc1)Cc1ccncc1 (stereo not given)	-6.88%
Cc1cc(C(=O)Nc2ccc(OC3CCOCC3)c(C)c2)[nH]n1	-17.3%
Cc1ccc(C(NC(=O)Cn2cc(C3CC3)nn2)C2CC2)cc1 (stereo not given)	-7.56%
O=C(NCc1ncc[nH]1)c1c(F)cccc1I	11.2%
